From patent US7517658B2, “Methods for preparing compositions using a SNORF33 receptor” (H. Lundbeck A/S, priority 1999, dated 2009)
Several values for one entry are separate records, joined by “and”; a condition that tells them apart may be missing. Identical values can stand only once.

What was measured:
[1] = biological target: T1, mouse SNORF33 (Mus musculus, UniProt Q923Y8); assay: cAMP assay at mouse SNORF33; assay type: cell-based
T1 construct: expressed in transfected cells; host or cells: COS-7 (membranes)
T1 sequence (Q923Y8 whole entry): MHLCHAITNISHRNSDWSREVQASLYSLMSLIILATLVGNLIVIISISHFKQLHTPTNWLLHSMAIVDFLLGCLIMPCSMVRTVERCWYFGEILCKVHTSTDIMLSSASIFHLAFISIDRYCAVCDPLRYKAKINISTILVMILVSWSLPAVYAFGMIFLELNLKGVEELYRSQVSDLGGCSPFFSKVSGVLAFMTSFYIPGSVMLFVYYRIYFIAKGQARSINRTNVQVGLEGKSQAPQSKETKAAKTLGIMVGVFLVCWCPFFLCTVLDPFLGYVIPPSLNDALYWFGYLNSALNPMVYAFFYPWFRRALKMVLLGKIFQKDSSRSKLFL
Method: The receptor-mediated stimulation or inhibition of cyclic AMP (cAMP) formation may be assayed in cells expressing the mammalian receptors. Cells are plated in 96-well plates or other vessels and preincubated in a buffer such as HEPES buffered saline (NaCl (150 mM), CaCl2 (1 mM), KCl (5 mM), glucose (10 mM)) supplemented with a phosphodiesterase inhibitor such as 5 mM theophylline, with or without protease inhibitor cocktail (For example, a typical inhibitor cocktail contains 2 μg/ml aprotinin, […] leupeptin, and 10 μg/ml phosphoramidon.) for 20 min at 37° C., in 5% CO2. Test compounds are added with or without […] forskolin and incubated for an additional 10 min at 37° C. The medium is then aspirated and the reaction stopped by the addition of 100 mM HCl or other methods. The plates are stored at 4° C. for 15 min, and the cAMP content in the stopping solution is measured by radioimmunoassay. Radioactivity may be quantified using a gamma counter equipped with data reduction software. Specific modifications may be performed to optimize the assay for the receptor or to alter the detection method of cAMP.
COS-7 cells were transiently transfected with rSNORF33 gene using the calcium phosphate method and plated in 96-well plates. 48 hours after transfection, cells were washed twice with Dulbecco's phosphate buffered saline (PBS) supplemented with 10 mM HEPES, 10 mM glucose, 5 mM theophylline and 10 μM pargyline and were incubated in the same buffer for 20 min at 37° C., in […] 5% CO2. Test compounds were added and cells were incubated for an additional 10 min at 37° C. The medium was then aspirated and the reaction stopped by the addition of 100 mM HCl. The plates were stored at −20° C. for 2-5 days. For cAMP measurement, plates were thawed and the cAMP content in each well was measured by radioimmunoassay cAMP Scintillation Proximity Assay (Amersham Pharmacia Biotech). Radioactivity was quantified using microbeta Trilux counter (Wallac).

[2] = biological target: T1, mouse SNORF33; assay: [3H]-TYR binding (saturation and displacement) to mouse SNORF33 COS-7 membranes; conditions: mouse SNORF33, displacement of [3H]TYR; read-out: Ki (individual determinations)
Method: [^3H]-TYR and [^3H]-T binding assays were performed essentially as described by Mallard et al. (1992), with minor modifications. Radioligand binding assays were performed by diluting membranes prepared from cells expressing the receptor (with co-expression of the rat G-protein alpha S subunit for human SNORF33) in 25 mM Gly-Gly buffer (Sigma, pH=7.4 @ 0° C.) containing 5 mM ascorbate and 10 μM pargyline (final protein concentration in assay=100-300 μg/ml). Membranes were then incubated with either [^3H]-TYR (American Radiochemicals, specific activity 60 mCi/μmole) or [^3H]-T (Amersham, specific activity 98 mCi/μmole) in the presence or absence of competing ligands on ice for 30 min in a total volume of 250 μl in 96 well microtiter plates. The bound ligand was separated from free by filtration through GF/B filters presoaked in 0.5% polyethyleneimine (PEI), using Tomtec (Wallac) or Brandel Cell Harvester vacuum filtration device. After addition of Ready Safe (Beckman) scintillation fluid, bound radioactivity was quantitated using a Trilux (Wallac) scintillation counter (approximately 20% counting efficiency of bound counts). Data was fit to non-linear curves using GraphPad Prism.
In this manner, agonist or antagonist compounds that bind to the receptor may be identified as they inhibit the binding of the labeled ligand to the membrane protein of cells expressing the said receptor. Non-specific binding was defined as the amount of radioactivity remaining after incubation of membrane protein in the presence of 10 μM of the unlabeled amine corresponding to the radioligand used. In equilibrium saturation binding assays, membrane preparations or intact cells transfected with the receptor are incubated in the presence of increasing concentrations of the labeled compound to determine the binding affinity of the labeled ligand. The binding affinities of unlabeled compounds may be determined in equilibrium competition binding assays, using a fixed concentration of labeled compound in the presence of varying concentrations of the displacing ligands.

[3] = biological target: rSNORF33 (Rattus norvegicus, UniProt Q923Y9); assay: Cl- currents in Xenopus oocytes expressing rSNORF33 and CFTR (voltage clamp); assay type: cell-based; conditions: for EC50: oocytes expressing rSNORF33 and CFTR, -80 mV, mean ± S.E.M., read-out: Calculated EC50, Cl- current
Chain of rSNORF33 (Q923Y9 whole entry): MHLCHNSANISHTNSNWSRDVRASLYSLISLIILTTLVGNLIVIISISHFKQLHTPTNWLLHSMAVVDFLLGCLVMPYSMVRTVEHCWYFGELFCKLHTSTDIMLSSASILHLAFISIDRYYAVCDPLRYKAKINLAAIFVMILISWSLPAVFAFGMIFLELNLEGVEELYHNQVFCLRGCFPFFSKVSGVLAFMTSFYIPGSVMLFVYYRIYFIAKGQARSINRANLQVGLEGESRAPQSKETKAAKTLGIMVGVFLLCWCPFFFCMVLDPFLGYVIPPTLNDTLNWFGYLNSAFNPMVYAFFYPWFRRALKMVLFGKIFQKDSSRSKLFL
Method: Female Xenopus laevis (Xenopus-1, Ann Arbor, Mich.) were anesthetized in 0.2% tricain (3-aminobenzoic acid ethyl ester, Sigma Chemical Corp.) and a portion of ovary was removed using aseptic technique (Quick and Lester, 1994). Oocytes were defolliculated, using 3 mg/ml collagenase (Worthington Biochemical Corp., Freehold, N.J.) in a solution containing 82.5 mM NaCl, 2 mM KCl, 1 mM MgCl2 and 5 mM HEPES, pH 7.5, and injected (Nanoject, Drummond Scientific, Broomall, Pa.) 24 h later with 50-70 nl of individual mRNAs or mRNA mixtures (see below).
Elevation of intracellular cAMP is monitored in oocytes by expression of the cystic fibrosis transmembrane conductance regulator (CFTR) whose Cl^−-selective pore opens in response to phosphorylation by protein kinase A (Riordan, 1993). To prepare RNA transcripts for expression in oocytes, a template was created by PCR using 5′ and 3′ primers derived from the published sequence of the CFTR gene (Riordan, 1993). The 5′ primer included the sequence coding for T7 polymerase so that transcripts could be generated directly from the PCR products without cloning. Oocytes were injected with 10 ng of CFTR mRNA in addition to 10-15 ng mRNA for SNORF33. Electrophysiological recordings were made after a 2-3 day incubation at 18° C.
Dual electrode voltage clamp (“GeneClamp”, Axon Instruments Inc., Foster City, Calif.) was performed using 3 M KCl-filled glass microelectrodes having resistances of 1-3 Mohms. Unless otherwise specified, oocytes were voltage clamped at a holding potential of −80 mV. During recordings, oocytes were bathed in continuously flowing (1-3 ml/min) medium containing 96 mM NaCl, 2 mM KCl, 1.8 mM CaCl2, 1 mM MgCl2, and 5 mM HEPES, pH 7.5 (ND96). […] Experiments were carried out at room temperature. All values are expressed as mean±standard error of the mean.

SMILES | Agonism in the cAMP assay [1] | Ki [2] | Cl- currents elicited ([3]; 1-100 μM) | EC50 [3] [nM] | Cl- currents elicited ([3]; at 100 μM)
NCCc1ccc(O)cc1 [Tyramine (TYR), Tyramine] | full agonists | 19 nM and 20 nM | produced this activity | 37 ± 4.4 | –
NCC(O)c1ccc(O)cc1 (stereo not shown) [Octopamine (OCT), Octopamine] | – | – | – | 635 ± 151 | elicited Cl^− currents
NCCc1c[nH]c2ccccc12 [Tryptamine (T), Tryptamine] | full agonists | 140 nM | produced this activity | 54 ± 10 | –
